From PubChem BioAssay (NCI)
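The compound was tested at five concentrations on cells cultured in 96-well plates, with a 48-hour exposure period. TGI: concentration producing complete growth inhibition.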

Columns and labels:
Assay in all cases: inhibition of tumour cell growth, NCI panel, 48 h
RXF 393 renal = system: RXF 393 renal
BT-549 breast = system: BT-549 breast
TK-10 renal = system: TK-10 renal
A498 renal = system: A498 renal
A549 NSCLC = system: A549 NSCLC
SK-MEL-5 melanoma = system: SK-MEL-5 melanoma
SF-539 CNS = system: SF-539 CNS
LOX IMVI melanoma = system: LOX IMVI melanoma
SN12C renal = system: SN12C renal
MOLT-4 leukemia = system: MOLT-4 leukemia
NCI-H23 lung = system: NCI-H23 lung
EKVX NSCLC = system: EKVX NSCLC
UACC-62 melanoma = system: UACC-62 melanoma
ACHN renal = system: ACHN renal
OVCAR-8 ovarian = system: OVCAR-8 ovarian
HOP-92 NSCLC = system: HOP-92 NSCLC
UACC-257 melanoma = system: UACC-257 melanoma
HL-60(TB) leukemia = system: HL-60(TB) leukemia
SNB-75 CNS = system: SNB-75 CNS

Row | Compound | TGI (RXF 393 renal) | TGI (BT-549 breast) | TGI (TK-10 renal) | TGI (A498 renal) | TGI (A549 NSCLC) | TGI (SK-MEL-5 melanoma) | TGI (SF-539 CNS) | TGI (LOX IMVI melanoma) | TGI (SN12C renal) | TGI (MOLT-4 leukemia) | TGI (NCI-H23 lung) | TGI (EKVX NSCLC) | TGI (UACC-62 melanoma) | TGI (ACHN renal) | TGI (OVCAR-8 ovarian) | TGI (HOP-92 NSCLC) | TGI (UACC-257 melanoma) | TGI (HL-60(TB) leukemia) | TGI (SNB-75 CNS)
1 | COc1ccc(C(=O)c2sc(Nc3ccccc3)nc2N)cc1 | > 100 µM | > 100 µM | > 100 µM | > 100 µM | > 100 µM | > 100 µM | > 100 µM | > 100 µM | > 100 µM | > 100 µM | > 100 µM | > 100 µM | > 100 µM | > 100 µM | > 100 µM | > 100 µM | > 100 µM |  | 
2 | CN1CCN(c2cc3c(cc2F)c(=O)c(C(=O)O)cn3C2CC2)CC1CC#N (configuration not stated) | > 100 µM | > 100 µM | > 100 µM | > 100 µM | > 100 µM | > 100 µM | > 100 µM | > 100 µM | > 100 µM | > 100 µM | > 100 µM | > 100 µM | > 100 µM | > 100 µM | > 100 µM |  | > 100 µM | > 100 µM | > 100 µM
3 | COC(=O)[C@@H](O)[C@]1(C(=O)OC)C2O[C@@H](OC)[C@@H]1CCCCCC[C@H]2O | > 100 µM | > 100 µM | > 100 µM |  | > 100 µM | > 100 µM | > 100 µM | > 100 µM | > 100 µM | > 100 µM | > 100 µM | > 100 µM | > 100 µM | > 100 µM | > 100 µM |  | > 100 µM |  | > 100 µM
4 | COC(=O)C12OC(C)(C(CC(=O)OC(C)(C)C)C1=O)C1C(=O)N(c3ccccc3)C(=O)C12 (configuration not stated) | > 100 µM | > 100 µM | > 100 µM | > 100 µM | > 100 µM | > 100 µM |  | > 100 µM | > 100 µM | > 100 µM | > 100 µM |  | > 100 µM | > 100 µM | > 100 µM | > 100 µM | > 100 µM |  | > 100 µM
5 | O=C(c1ccco1)n1c2ccc(Br)cc2c2nc3ccccc3nc21 | > 100 µM | > 100 µM | > 100 µM |  |  | > 100 µM | > 100 µM | > 100 µM | > 100 µM | > 100 µM | > 100 µM | > 100 µM | > 100 µM | > 100 µM | > 100 µM | > 100 µM | > 100 µM | > 100 µM | 58.6 µM
6 | CC(=O)CCC(=O)C(=[N+]=[N-])S(=O)(=O)c1ccccc1 | > 100 µM | > 100 µM | > 100 µM |  | > 100 µM | > 100 µM | > 100 µM | > 100 µM | > 100 µM | > 100 µM | > 100 µM | > 100 µM | > 100 µM | > 100 µM | > 100 µM |  | > 100 µM | > 100 µM | > 100 µM
7 | C=C(C(=O)O)C1CCC(CC/C=C(\C)CC/C=C(\C)CCC=C(C)C)CO1 (configuration not stated) | 29.6 µM | 61.8 µM | 81.8 µM | 54.4 µM | 32.4 µM | 24.9 µM | 32.4 µM | 24.6 µM | 34.3 µM |  | 40.5 µM | 34.1 µM | > 100 µM | > 100 µM | 39.9 µM |  | 52.9 µM | 69.4 µM | > 100 µM
8 | c1ccc(-c2ccc(-c3cc4ccccc4[nH]3)cc2)cc1 |  | > 100 µM | > 100 µM |  | > 100 µM | > 100 µM | > 100 µM | > 100 µM | > 100 µM | > 100 µM | > 100 µM | > 100 µM | > 100 µM | > 100 µM | > 100 µM | > 100 µM | > 100 µM | > 100 µM | > 100 µM
9 | N#CCC(=O)c1cc(OCc2cc(OCc3ccc(Br)cc3)cc(OCc3ccc(Br)cc3)c2)cc(OCc2cc(OCc3ccc(Br)cc3)cc(OCc3ccc(Br)cc3)c2)c1 |  | > 100 µM | > 100 µM | > 100 µM | > 100 µM | > 100 µM |  |  | > 100 µM |  | > 100 µM | > 100 µM | > 100 µM | > 100 µM |  | > 100 µM | > 100 µM |  | > 100 µM
10 | O=C1C=CC(=O)c2c(NCC3CC3)ccc(NCC3CC3)c21 |  | > 100 µM | > 100 µM | > 100 µM | > 100 µM | 52 µM | > 100 µM | 43 µM | > 100 µM | 44.9 µM | 89.4 µM | > 100 µM | 65.3 µM | > 100 µM | > 100 µM |  | 61.8 µM | 31.8 µM | 
11 | NC1CC(N)c2c(Br)sc(Br)c21 (configuration not stated) |  | > 100 µM | > 100 µM | > 100 µM | > 100 µM | > 100 µM | > 100 µM | > 100 µM | > 100 µM | > 100 µM | > 100 µM | > 100 µM | > 100 µM | > 100 µM | > 100 µM | > 100 µM | > 100 µM |  | 
12 | Cc1cnc(/N=c2\sc(C)cn2-c2ncc(C)s2)s1 | > 100 µM | > 100 µM | > 100 µM |  | > 100 µM | > 100 µM | > 100 µM | > 100 µM | > 100 µM | > 100 µM | > 100 µM | > 100 µM | > 100 µM | > 100 µM | > 100 µM | > 100 µM | > 100 µM | > 100 µM | > 100 µM
13 | CCN(CCCN(CC)C(=O)Nc1ccccc1)C(=O)Nc1ccccc1 | > 100 µM | > 100 µM | > 100 µM |  | > 100 µM | > 100 µM | > 100 µM | > 100 µM | > 100 µM | > 100 µM | > 100 µM | > 100 µM | > 100 µM | > 100 µM | > 100 µM | > 100 µM | > 100 µM | > 100 µM | > 100 µM
14 | Cc1cc(C)nc(NC(=S)Nc2ccccc2Cl)c1 | > 100 µM | > 100 µM | > 100 µM | > 100 µM | > 100 µM | > 100 µM | > 100 µM | > 100 µM | > 100 µM | > 100 µM |  | > 100 µM | > 100 µM |  | > 100 µM |  | > 100 µM | > 100 µM | > 100 µM
